Source: US6881741B2 (ViroChem Pharma Inc., priority 2001, dated 2005)

target: recombinant HCV NS5B (HCV RNA-dependent RNA polymerase) (Hepatitis C virus genotype 1b, UniProt P26663); assay: biochemical; details: HCV polymerase activity, list of compounds of Example 27; read-out: IC50 (polymerase activity)
Sequence (P26663 2420-3010 limits assumed): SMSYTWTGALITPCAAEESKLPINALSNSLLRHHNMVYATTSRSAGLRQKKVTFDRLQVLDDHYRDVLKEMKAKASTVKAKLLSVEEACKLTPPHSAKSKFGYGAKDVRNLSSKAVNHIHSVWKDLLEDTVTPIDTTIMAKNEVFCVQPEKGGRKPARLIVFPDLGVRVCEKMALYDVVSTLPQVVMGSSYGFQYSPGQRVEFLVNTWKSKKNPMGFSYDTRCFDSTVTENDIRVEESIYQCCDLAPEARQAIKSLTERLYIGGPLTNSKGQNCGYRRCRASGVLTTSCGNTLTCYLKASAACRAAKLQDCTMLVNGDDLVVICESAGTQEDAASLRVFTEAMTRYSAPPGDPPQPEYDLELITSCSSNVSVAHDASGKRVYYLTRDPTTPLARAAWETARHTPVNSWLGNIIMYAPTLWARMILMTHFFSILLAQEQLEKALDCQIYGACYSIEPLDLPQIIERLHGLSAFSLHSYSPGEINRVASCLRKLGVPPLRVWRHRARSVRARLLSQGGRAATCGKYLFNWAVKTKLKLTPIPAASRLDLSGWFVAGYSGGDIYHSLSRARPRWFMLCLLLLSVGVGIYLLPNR

SMILES	IC50 [µM]
O=C(O)c1sc(-c2ccccc2)cc1N(Cc1ccc(C(F)(F)F)cc1)C(=O)C1CCCCC1 [Compound 436, 3-[CYCLOHEXANECARBONYL-(4- TRIFLUOROMETHYL-BENZYL)-AMINO]-5- PHENYL-THIOPHENE-2-CARBOXYLIC ACID]	< 5
CC(C)C(=O)N(Cc1ccc(C(C)(C)C)cc1)c1cc(-c2ccccc2)sc1C(=O)O [Compound 437, 3-[(4-TERT-BUTYL-BENZYL)- ISOBUTYRYL-AMINO]-5-PHENYL- THIOPHENE-2-CARBOXYLIC ACID]	5 to 20
CC(C)(C)c1ccc(CN(C(=O)C2CC2)c2cc(-c3ccccc3)sc2C(=O)O)cc1 [Compound 438, 3-[(4-TERT-BUTYL-BENZYL)- CYCLOPROPANECARBONYL-AMINO]-5- PHENYL-THIOPHENE-2-CARBOXYLIC ACID]	5 to 20
CC(C)(C)c1ccc(CN(C(=O)C2CCC2)c2cc(-c3ccccc3)sc2C(=O)O)cc1 [Compound 439, 3-[(4-TERT-BUTYL-BENZYL)- CYCLOBUTANECARBONYL-AMINO]-5- PHENYL-THIOPHENE-2-CARBOXYLIC ACID]	< 5
CCCC(=O)N(Cc1ccc(C(C)(C)C)cc1)c1cc(-c2ccccc2)sc1C(=O)O [Compound 440, 3-[(4-TERT-BUTYL-BENZYL)-BUTYRYL- AMINO]-5-PHENYL-THIOPHENE-2- CARBOXYLIC ACID]	5 to 20
CC(C)(C)c1ccc(CN(C(=O)C2CCCCC2)c2cc(-c3ccccc3)sc2C(=O)O)cc1 [Compound 441, 3-[(4-TERT-BUTYL-BENZYL)- CYCLOHEXANECARBONYL-AMINO]-5- PHENYL-THIOPHENE-2-CARBOXYLIC ACID]	< 5
CC(C)(C)c1ccc(CN(C(=O)CC2CCCC2)c2cc(-c3ccccc3)sc2C(=O)O)cc1 [Compound 442, 3-[(4-TERT-BUTYL-BENZYL)-(2- CYCLOPENTYL-ACETYL)-AMINO]-5- PHENYL-THIOPHENE-2-CARBOXYLIC ACID]	< 5
O=C(O)c1sc(-c2ccccc2)cc1N(Cc1ccc([N+](=O)[O-])cc1)C(=O)CC1CCCC1 [Compound 443, 3-[(2-CYCLOPENTYL-ACETYL)-(4-NITRO- BENZYL)-AMINO]-5-PHENYL-THIOPHENE- 2-CARBOXYLIC ACID]	< 5
O=C(O)c1sc(-c2ccccc2)cc1N(Cc1ccccc1Cl)C(=O)C1CCCCC1 [Compound 444, 3-[(2-CHLORO-BENZYL)- CYCLOHEXANECARBONYL-AMINO]-5- PHENYL-THIOPHENE-2-CARBOXYLIC ACID]	< 5
Cc1cccc(CN(C(=O)CC2CCCC2)c2cc(-c3ccccc3)sc2C(=O)O)c1 [Compound 445, 3-[(2-CYCLOPENTYL-ACETYL)-(3- METHYL-BENZYL)-AMINO]-5-PHENYL- THIOPHENE-2-CARBOXYLIC ACID]	< 5
CCCC(=O)N(Cc1cccc(C)c1)c1cc(-c2ccccc2)sc1C(=O)O [Compound 446, 3-[BUTYRYL-(3-METHYL-BENZYL)- AMINO]-5-PHENYL-THIOPHENE-2- CARBOXYLIC ACID]	5 to 20
CCCC(=O)N(Cc1ccccc1Cl)c1cc(-c2ccccc2)sc1C(=O)O [Compound 447, 3-[BUTYRYL-(2-CHLORO-BENZYL)- AMINO]-5-PHENYL-THIOPHENE-2- CARBOXYLIC ACID]	< 5
Cc1cccc(-c2cc(N(C(=O)C3CCC(C)CC3)C(C)C)c(C(=O)O)s2)c1 (stereo not shown) [Compound 448, 3-[ISOPROPYL-(4-METHYL- CYCLOHEXANECARBONYL)-AMINO]-5- #M!-TOLYL-THIOPHENE-2-CARBOXYLIC ACID]	< 5
CC(C)N(C(=O)c1ccc(Cl)cc1Cl)c1cc(-c2nccs2)sc1C(=O)O [Compound 449, 3-[(2,4-DICHLORO-BENZOYL)- ISOPROPYL-AMINO]-5-THIAZOL-2-YL- THIOPHENE-2-CARBOXYLIC ACID]	< 5
CC(=O)N(Cc1ccccc1)c1cc(-c2ccccc2)sc1C(=O)O [Compound 450, 3-(ACETYL-BENZYL-AMINO)-5-PHENYL- THIOPHENE-2-CARBOXYLIC ACID]	< 5
CCC(=O)N(Cc1ccccc1)c1cc(-c2ccccc2)sc1C(=O)O [Compound 451, 3-(BENZYL-PROPIONYL-AMINO)-5- PHENYL-THIOPHENE-2-CARBOXYLIC ACID]	< 5
COCC(=O)N(Cc1ccccc1)c1cc(-c2ccccc2)sc1C(=O)O [Compound 452, 3-[BENZYL-(2-METHOXY-ACETYL)- AMINO]-5-PHENYL-THIOPHENE-2- CARBOXYLIC ACID]	< 5
CC(C)CC(=O)N(Cc1ccccc1)c1cc(-c2ccccc2)sc1C(=O)O [Compound 453, 3-[BENZYL-(3-METHYL-BUTYRYL)- AMINO]-5-PHENYL-THIOPHENE-2- CARBOXYLIC ACID]	< 5
O=C(O)c1sc(-c2ccccc2)cc1N(Cc1ccccc1)C(=O)C1CC1 [Compound 454, 3-(BENZYL-CYCLOPROPANECARBONYL- AMINO)-5-PHENYL-THIOPHENE-2- CARBOXYLIC ACID]	< 5
CC(=O)N(Cc1ccc(Cl)cc1)c1cc(-c2ccccc2)sc1C(=O)O [Compound 455, 3-[ACETYL-(4-CHLORO-BENZYL)-AMINO]- 5-PHENYL-THIOPHENE-2-CARBOXYLIC ACID]	5 to 20

SMILES	IC50 [µM]
CCC(=O)N(Cc1ccc(Cl)cc1)c1cc(-c2ccccc2)sc1C(=O)O [Compound 456, 3-[(4-CHLORO-BENZYL)-PROPIONYL- AMINO]-5-PHENYL-THIOPHENE-2- CARBOXYLIC ACID]	< 5
CC(C)C(=O)N(Cc1ccc(Cl)cc1)c1cc(-c2ccccc2)sc1C(=O)O [Compound 457, 3-[(4-CHLORO-BENZYL)-ISOBUTYRYL- AMINO]-5-PHENYL-THIOPHENE-2- CARBOXYLIC ACID]	5 to 20
CC(C)CC(=O)N(Cc1ccc(Cl)cc1)c1cc(-c2ccccc2)sc1C(=O)O [Compound 458, 3-[(4-CHLORO-BENZYL)-(3-METHYL- BUTYRYL)-AMINO]-5-PHENYL- THIOPHENE-2-CARBOXYLIC ACID]	5 to 20
O=C(O)c1sc(-c2ccccc2)cc1N(Cc1ccc(Cl)cc1)C(=O)C1CC1 [Compound 459, 3-[(4-CHLORO-BENZYL)- CYCLOPROPANECARBONYL-AMINO]-5- PHENYL-THIOPHENE-2-CARBOXYLIC ACID]	5 to 20
CC(=O)c1ccc(-c2cc(N(C(=O)C3CCC(C)CC3)C(C)C)c(C(=O)O)s2)cc1 (stereo not shown) [Compound 460, 5-(4-ACETYL-PHENYL)-3-[ISOPROPYL-(4- METHYL-CYCLOHEXANECARBONYL)- AMINO]-THIOPHENE-2-CARBOXYLIC ACID]	< 5
O=C(O)c1sc(-c2ccccc2)cc1N(Cc1ccc(Cl)cc1)C(=O)C1CCC1 [Compound 461, 3-[(4-CHLORO-BENZYL)- CYCLOBUTANECARBONYL-AMINO]-5- PHENYL-THIOPHENE-2-CARBOXYLIC ACID]	5 to 20
CCCC(=O)N(Cc1ccc(Cl)cc1)c1cc(-c2ccccc2)sc1C(=O)O [Compound 462, 3-[BUTYRYL-(4-CHLORO-BENZYL)- AMINO]-5-PHENYL-THIOPHENE-2- CARBOXYLIC ACID]	5 to 20
O=C(O)c1sc(-c2ccccc2)cc1N(Cc1ccc(Cl)cc1)C(=O)CC1CCCC1 [Compound 463, 3-[(4-CHLORO-BENZYL)-(2- CYCLOPENTYL-ACETYL)-AMINO]-5- PHENYL-THIOPHENE-2-CARBOXYLIC ACID]	< 5
CC(=O)N(Cc1ccc(C(F)(F)F)cc1)c1cc(-c2ccccc2)sc1C(=O)O [Compound 464, 3-[ACETYL-(4-TRIFLUOROMETHYL- BENZYL)-AMINO]-5-PHENYL-THIOPHENE- 2-CARBOXYLIC ACID]	5 to 20
Cc1cccc(CN(C(=O)C(C)C)c2cc(-c3ccccc3)sc2C(=O)O)c1 [Compound 465, 3-[ISOBUTYRYL-(3-METHYL-BENZYL)- AMINO]-5-PHENYL-THIOPHENE-2- CARBOXYLIC ACID]	5 to 20
Cc1cccc(CN(C(=O)C2CC2)c2cc(-c3ccccc3)sc2C(=O)O)c1 [Compound 466, 3-[CYCLOPROPANECARBONYL-(3- METHYL-BENZYL)-AMINO]-5-PHENYL- THIOPHENE-2-CARBOXYLIC ACID]	5 to 20
CCC(=O)N(Cc1ccc(C)cc1)c1cc(-c2ccccc2)sc1C(=O)O [Compound 467, 3-[(4-METHYL-BENZYL)-PROPIONYL- AMINO]-5-PHENYL-THIOPHENE-2- CARBOXYLIC ACID]	5 to 20
Cc1ccc(CN(C(=O)C(C)C)c2cc(-c3ccccc3)sc2C(=O)O)cc1 [Compound 468, 3-[ISOBUTYRYL-(4-METHYL-BENZYL)- AMINO]-5-PHENYL-THIOPHENE-2- CARBOXYLIC ACID]	5 to 20
Cc1ccc(CN(C(=O)C2CC2)c2cc(-c3ccccc3)sc2C(=O)O)cc1 [Compound 469, 3-[CYCLOPROPANECARBONYL-(4- METHYL-BENZYL)-AMINO]-5-PHENYL- THIOPHENE-2-CARBOXYLIC ACID]	5 to 20
CCCC(=O)N(Cc1ccc(C)cc1)c1cc(-c2ccccc2)sc1C(=O)O [Compound 470, 3-[BUTYRYL-(4-METHYL-BENZYL)- AMINO]-5-PHENYL-THIOPHENE-2- CARBOXYLIC ACID]	5 to 20
CCC(=O)N(Cc1cccc(OC)c1)c1cc(-c2ccccc2)sc1C(=O)O [Compound 471, 3-[(3-METHOXY-BENZYL)-PROPIONYL- AMINO]-5-PHENYL-THIOPHENE-2- CARBOXYLIC ACID]	> 20
COc1cccc(CN(C(=O)CC(C)C)c2cc(-c3ccccc3)sc2C(=O)O)c1 [Compound 472, 3-[(3-METHOXY-BENZYL)-(3-METHYL- BUTYRYL)-AMINO]-5-PHENYL- THIOPHENE-2-CARBOXYLIC ACID]	< 5
COc1cccc(CN(C(=O)C2CCC2)c2cc(-c3ccccc3)sc2C(=O)O)c1 [Compound 473, 3-[CYCLOBUTANECARBONYL-(3- METHOXY-BENZYL)-AMINO]-5-PHENYL- THIOPHENE-2-CARBOXYLIC ACID]	5 to 20
Cc1ccc(C(=O)N(c2cc(-c3ccccc3)sc2C(=O)O)C(C)C)c(C(N)=O)c1 [Compound 474, 3-[(2-CARBAMOYL-4-METHYL-BENZOYL)- ISOPROPYL-AMINO]-5-PHENYL- THIOPHENE-2-CARBOXYLIC ACID]	5 to 20
CCCC(=O)N(Cc1cccc(OC)c1)c1cc(-c2ccccc2)sc1C(=O)O [Compound 475, 3-[BUTYRYL-(3-METHOXY-BENZYL)- AMINO]-5-PHENYL-THIOPHENE-2- CARBOXYLIC ACID]	5 to 20
